Measured values reported in PubChem BioAssay AID192 (DTP/NCI, 2004).
Where “and” joins values, the source holds several entries; their conditions need not be identical. Equal entries are not always repeated. Toxic doses and inconclusive results are not listed. Rule for the calls: active = survival T/C of 150% or more; inactive = T/C below 125% in these data.

Tested on: BDF1 mice, B16 melanoma ip, median survival T/C
Assay: NCI In Vivo Anticancer Drug Screen. Data for tumor model B16 Melanoma (intraperitoneal) in B6D2F1 (BDF1) mice
Conditions: endpoint: median survival time, higher = longer survival
Description: The antitumor activity of compounds was measured in mice bearing transplantable tumors. Survival or tumor size were measured and the results are expressed as the measurement made in the treated group (T) divided by the measurement made in the vehicle treated control group (C). The tumor model used in this assay is B16 Melanoma (intraperitoneal) in B6D2F1 (BDF1) mice

[1] = dose: 100.0 mg/kg/injection, schedule: Q01DX009 (ip), vehicle: saline
[2] = dose: 200.0 mg/kg/injection, schedule: Q01DX009 (ip), vehicle: saline
[3] = dose: 12.5 mg/kg/injection, schedule: Q01DX009 (ip), vehicle: Klucel (hydroxypropylcellulose) (HPC)
[4] = dose: 25.0 mg/kg/injection, schedule: Q01DX009 (ip), vehicle: Klucel (hydroxypropylcellulose) (HPC)
[5] = dose: 50.0 mg/kg/injection, schedule: Q01DX009 (ip), vehicle: Klucel (hydroxypropylcellulose) (HPC)
[6] = dose: 50.0 mg/kg/injection, schedule: Q01DX009 (ip), vehicle: saline
[7] = dose: 400.0 mg/kg/injection, schedule: Q01DX009 (ip), vehicle: saline
[8] = dose: 50.0 mg/kg/injection, schedule: Q01DX009 (ip), vehicle: saline with Tween-80
[9] = dose: 100.0 mg/kg/injection, schedule: Q01DX009 (ip), vehicle: saline with Tween-80

Measured: T/C

COc1cc2ccc(C(C)N)cc2cc1OC (stereo unspecified)
inactive: [1] 97 % of control | [2] 95 % of control

O=C(Nc1ccccc1C(F)(F)F)Nc1cccc2ccccc12
inactive: dose: 100.0 mg/kg/injection, schedule: Q01DX009 (ip), vehicle: Klucel (hydroxypropylcellulose) (HPC) 91 % of control | dose: 200.0 mg/kg/injection, schedule: Q01DX009 (ip), vehicle: Klucel (hydroxypropylcellulose) (HPC) 94 % of control

NC(=O)CC(NC(=O)OCc1ccccc1)C(N)=O (stereo unspecified)
inactive: dose: 100.0 mg/kg/injection, schedule: Q04DX003 (ip), vehicle: Klucel (hydroxypropylcellulose) (HPC) 100 % of control | dose: 200.0 mg/kg/injection, schedule: Q04DX003 (ip), vehicle: Klucel (hydroxypropylcellulose) (HPC) 87 % of control | dose: 400.0 mg/kg/injection, schedule: Q04DX003 (ip), vehicle: Klucel (hydroxypropylcellulose) (HPC) 87 % of control

CC(C)(O)C(C)(O)c1cccc(Cl)c1 (stereo unspecified)
inactive: [3] 107 % of control | [4] 102 % of control | [5] 88 % of control

Cc1cccc2cc3c(ccc4ccccc43)c[n+]12
inactive: dose: 1.0 mg/kg/injection, schedule: Q01DX009 (ip), vehicle: saline sonified 105 % of control | dose: 2.0 mg/kg/injection, schedule: Q01DX009 (ip), vehicle: saline sonified 107 % of control | dose: 4.0 mg/kg/injection, schedule: Q01DX009 (ip), vehicle: saline sonified 102 % of control

O=C(O)CCc1cccnc1
inactive: [6] 104 % of control | [1] 107 % of control | [2] 106 % of control | [7] 107 % of control

COc1ccc2c(c1)CCC(c1ccccc1)=C2c1ccc(OCCN2CCCC2)cc1
inactive: dose: 6.0 mg/kg/injection, schedule: Q01DX009 (ip), vehicle: saline sonified 102 % of control | dose: 12.0 mg/kg/injection, schedule: Q01DX009 (ip), vehicle: saline sonified 111 % of control | dose: 24.0 mg/kg/injection, schedule: Q01DX009 (ip), vehicle: saline sonified 111 % of control

CSCCC1NC(=O)C(C(C)=Nc2ccccc2)=C1O (stereo unspecified)
inactive: [8] 100 % of control | [9] 96 % of control | dose: 200.0 mg/kg/injection, schedule: Q01DX009 (ip), vehicle: saline with Tween-80 95 % of control

COc1ccc(C(N)=O)cc1N=NN(C)C
inactive: dose: 3.12 mg/kg/injection, schedule: Q01DX009 (ip), vehicle: Klucel (hydroxypropylcellulose) (HPC) 111 % of control and 113 % of control | dose: 6.25 mg/kg/injection, schedule: Q01DX009 (ip), vehicle: Klucel (hydroxypropylcellulose) (HPC) 109 % of control and 110 % of control | [3] 110 % of control and 111 % of control | [4] 115 % of control and 123 % of control | [5] 117 % of control

COc1ccc(NC(=O)Nc2cc(Cl)ccc2OC)cc1
inactive: [4] 92 % of control | [5] 92 % of control

NCC(=O)NC(CO)C(=O)O (stereo unspecified)
inactive: [1] 90 % of control | dose: 100.0 mg/kg/injection, schedule: Q04DX003 (ip), vehicle: saline 100 % of control | [2] 106 % of control | dose: 200.0 mg/kg/injection, schedule: Q04DX003 (ip), vehicle: saline 102 % of control | [7] 95 % of control | dose: 400.0 mg/kg/injection, schedule: Q04DX003 (ip), vehicle: saline 95 % of control

CCCCCC#CC(=O)O
inactive: dose: 75.0 mg/kg/injection, schedule: Q01DX009 (ip), vehicle: Klucel (hydroxypropylcellulose) (HPC) 95 % of control | dose: 150.0 mg/kg/injection, schedule: Q01DX009 (ip), vehicle: Klucel (hydroxypropylcellulose) (HPC) 86 % of control

Cc1cc2[nH]c(=O)[nH]c2cc1C
inactive: [8] 97 % of control | [9] 90 % of control

CCCCCCCCC(=O)N(C)OC
inactive: dose: 3.13 mg/kg/injection, schedule: Q04DX003 (ip), vehicle: saline 107 % of control | dose: 6.25 mg/kg/injection, schedule: Q04DX003 (ip), vehicle: saline 121 % of control | dose: 12.5 mg/kg/injection, schedule: Q04DX003 (ip), vehicle: saline 105 % of control

C1CN2CN3CCN(CN1C3)C2
inactive: dose: 12.5 mg/kg/injection, schedule: Q01DX009 (ip), vehicle: saline 99 % of control and 114 % of control | dose: 25.0 mg/kg/injection, schedule: Q01DX009 (ip), vehicle: saline 103 % of control and 113 % of control | [6] 123 % of control
